According to US20240317792A1, “CYCLIC DINUCLEOTIDE METAL COMPOUND, AND PREPARATION AND APPLICATION THEREOF” (HANGZHOU XINGAO BIOTECHNOLOGY CO., LTD., priority 2022, published 2024):

Legend:
IFN-β = IFN-β content in blood induced by the compounds, over time by ELISA; assay type: in vivo; conditions: SD mice serum, sampled 0-24 h, peak of concentration change curve
Protocol: Experimental animals: SD mice, weighing 200-220 g, were purchased from Shanghai SLAC Laboratory Animal Co. Ltd.
Main test steps: The SD mice were randomly divided into 7 groups (10 mice in each group). The 7 groups were listed as follows: blank control group (injection of normal saline); cGAMP group; [Li2(cGAMP)] group; [Mg(cGAMP)] group; [Zn(cGAMP)] group; [Mn(cGAMP)] group; and [Fe(cGAMP)] group. At fixed time points (0 h, 1 h, 2 h, 4 h, 6 h, 8 h, 10 h, 12 h, 14 h, 16 h, 20 h, and 24 h), 1 mL of blood of each of the SD mice was taken through ophthalmic vein by a capillary, placed in a 1.5 mL of centrifuge tube followed by centrifugation for 30 min. Upper serum was collected and stored at −80° C. for use. Concentrations of cGAMP and IFN-β in the serum were determined by ELISA kit. Based on IFN-β induced by activation of innate immunity paths of the cGAMP and the cyclic dinucleotide metal compounds, a content of the IFN-β in the blood was detected, and stability and activation activity of immune path of the cGAMP and the cyclic dinucleotide metal compounds were evaluated. Concentration values (including cGAMP and IFN-β) in blood samples of the SD mice in each group were detected by the ELISA kit, and the concentration values and average values at each time point were calculated. A concentration change curve over time was drawn, and a peak of the concentration change curve was obtained.

[1] = test system: mouse breast cancer cell line 4T1; assay: Subcutaneously transplanted 4T1 tumor growth inhibition; assay type: in vivo, BALB/c ordinary mice; conditions: 4T1 in BALB/c mice; 10 mg/kg intraperitoneal once every 2 days for 20 days
Description: (§1) Experimental animals: BALB/c ordinary mice and C57BL/6 ordinary mice, male, weighing 20-22 grams, 7-8 weeks old, purchased from Shanghai SLAC Laboratory Animal Co. Ltd.
(§2) Tumour cell line: mouse colorectal cancer cell line CT26 and mouse breast cancer cell line 4T1, both purchased from Chinese Academy of Sciences Cell Bank.
(§3) Establishment and intervention of tumor model mice: cells were subjected to culture and subculture, collected in a logarithmic phase and prepared as 1.0×10^7/mL of cell suspension. 0.2 mL of the cell suspension was injected armpits of forelegs of the mice (with a cell number of 2.0×10^6), and tumor transplantation was successful in about 7 days. Mice with successful tumor transplantation were randomly divided into 7 groups (10 mice in each group). The 7 groups were listed as follows: A: negative control group (injection with normal saline); B: positive control cGAMP group (10 mg/kg of injection); C: [Li2(cGAMP)] group (10 mg/kg of injection); D: [Mg(cGAMP)] group (10 mg/kg of injection); E: [Zn(cGAMP)] group (10 mg/kg of injection); F: [Mn(cGAMP)] group (10 mg/kg of injection); and G: [Fe(cGAMP)] group (10 mg/kg of injection). The mice with successful tumor transplantation were subjected to administration by intraperitoneal injection with a volume of 200 μL per mice once every 2 days for 20 days. After 20 days, the mice with successful tumor transplantation were killed, and the tumor were weighed. A formula of inhibitory rate of tumor was as represented as inhibitory rate of tumor=[1−average tumor weight of experimental group/average tumor weight of the negative control group]×100%.
(§4) According to the establishment of tumor model mice, the mouse colorectal cancer cell line CT26 was cultured and transplanted to the BALB/c ordinary mice, and the mouse breast cancer cell line 4T1 was cultured and transplanted to the BALB/c ordinary mice.
(§5) Statistical analysis: data was expressed as mean±standard deviation and processed by the SPSS10.0 software. One-way ANOVA was used to detect and compare significance of tumor weights in each group.

[2] = test system: mouse colorectal cancer cell line CT26; assay: Subcutaneously transplanted CT26 tumor growth inhibition; assay type: in vivo, BALB/c ordinary mice; conditions: CT26 in BALB/c mice; 10 mg/kg intraperitoneal once every 2 days for 20 days
Description: as §1, §2, §3, §4, §5

T(CD8+) cells = assay: Flow cytometry of CD8+ T cells in spleen and lung after immunization; assay type: in vivo, C57BL/6 ordinary mice; conditions: after 14 days of immunization
Description: Experimental animals: C57BL/6 ordinary mice, male, weighing 20-22 grams, 7-8 weeks old, purchased from Shanghai SLAC Laboratory Animal Co. Ltd.
The mice were randomly divided into 8 groups (10 mice in each group). The 8 groups were as listed follows: A: Negative control group (isotype control antibody group); B: blank group; C: cyclic dinucleotide group; D: [Li2(cGAMP)] group; E: [Mg(cGAMP)] group; F: [Zn(cGAMP)] group; G: [Mn(cGAMP)] group; and H: [Fe(cGAMP)] group. Isotype control flow antibody was purchased from eBiosciences, antibody magnetic strain was purchased from Militeny Biotech, and flow cytometry was purchased from BD company. After 14 days of immunization (immunization process was the same as that in the Example 12), spleens and lung tissues of the mice were collected, respectively mashed, filtered through 40 micron pores followed by 1000 rpm of centrifugation for 10 min to solate unlysed immune cells. Dendritic cells (DCs) (CD40\CD80\CD86\MHCII), T(CD8+) cells were separated, and added with corresponding FAC antibodies (diluted with Fluorescence-Activated Cell Sorting (FACS) buffer). Isotype control antibody was used as negative control. After antibody addition, the DCs and T (CD8+) cells were incubate for 1 h, centrifuged and washed by phosphate buffer saline (PBS) followed by analysis by the flow cytometry to sort suitable cells. Fluorescence intensity (MFI) of sorted cells was measured.

SMILES | Time to peak serum IFN-β concentration (IFN-β) | Average inhibitory rate of tumor [1] | Average tumor weight [1] | Average inhibitory rate of the tumor [2] | Average tumor weight [2] | Lung (% CD8 + T cells) (T(CD8+) cells) | Spleen (% CD8 + T cells) (T(CD8+) cells)
Nc1nc2c(ncn2C2OC3COP(=O)([O-])OC4C(COP(=O)([O-])OC2C3O)OC(n2cnc3c(N)ncnc32)C4O)c(=O)[nH]1.[Fe+2] (stereo not drawn) [[Fe(cGAMP)], ferrous cyclic dinucleotide] | 5.6 h | 83.6% | 0.301 ± 0.116 g | 83.5% | 0.301 ± 0.112 g | 0.7 ± 0.3% | 6.9 ± 1.2%
Nc1nc2c(ncn2[C@@H]2O[C@@H]3COP(=O)([O-])O[C@H]4[C@@H](O)[C@H](n5cnc6c(N)ncnc65)O[C@@H]4COP(=O)([O-])O[C@@H]2[C@@H]3O)c(=O)[nH]1.[Li+].[Li+] [[Li2(cGAMP)], lithium cyclic dinucleotide] | 5.6 h | 61.5% | 0.712 ± 0.146 g | 63.0% | 0.675 ± 0.163 g | 0.6 ± 0.2% | 3.1 ± 0.3%
Nc1nc2c(ncn2[C@@H]2O[C@@H]3COP(=O)([O-])O[C@H]4[C@@H](O)[C@H](n5cnc6c(N)ncnc65)O[C@@H]4COP(=O)([O-])O[C@@H]2[C@@H]3O)c(=O)[nH]1.[Mg+2] [[Mg(cGAMP)], magnesium cyclic dinucleotide] | 5.9 h | 63.2% | 0.679 ± 0.183 g | 65.2% | 0.635 ± 0.178 g | 1.7 ± 0.3% | 6.2 ± 0.6%
Nc1nc2c(ncn2C2OC3COP(=O)([O-])OC4C(COP(=O)([O-])OC2C3O)OC(n2cnc3c(N)ncnc32)C4O)c(=O)[nH]1.[Mn+2] (stereo not drawn) [[Mn(cGAMP)], manganese cyclic dinucleotide] | 6.0 h | 84.9% | 0.287 ± 0.116 g | 85.8% | 0.258 ± 0.105 g | 0.8 ± 0.3% | 7.5 ± 1.3%
Nc1nc2c(ncn2[C@@H]2O[C@@H]3COP(=O)([O-])O[C@H]4[C@@H](O)[C@H](n5cnc6c(N)ncnc65)O[C@@H]4COP(=O)([O-])O[C@@H]2[C@@H]3O)c(=O)[nH]1.[Zn+2] [[Zn(cGAMP)], zinc cyclic dinucleotide] | 6.2 h | 89.1% | 0.212 ± 0.135 g | 88.9% | 0.201 ± 0.123 g | 1.6 ± 0.2% | 8.6 ± 1.8%
Nc1nc2c(ncn2[C@@H]2O[C@@H]3COP(=O)(O)O[C@H]4[C@@H](O)[C@H](n5cnc6c(N)ncnc65)O[C@@H]4COP(=O)(O)O[C@@H]2[C@@H]3O)c(=O)[nH]1 [cGAMP, 2′3′-cGAMP, reference compound] | 4.0 h | 58.8% | 0.761 ± 0.157 g | 61.0% | 0.712 ± 0.145 g | 0.5 ± 0.2% | 2.2 ± 0.2%
